Assay results published in a melting point compilation (Tetko et al.; mined from patent text by program, amines drawn as free bases though some values may be those of a salt).

Compound | melting point [°C]
N#Cc1ccc2nc(-c3cccc(Br)c3)cn2c1 | 205 to 206
CCOC(=O)C=Cc1ccc(NC(C)=O)cc1 | 126 to 127
CCOC(=O)c1ccc(/C=C(\C)c2ccc3c(c2)C(C)(C)CCO3)cc1 | 86 to 87
CCOP(=O)(OCC)C1(P(=O)(OCC)OCC)CC(C(=O)c2ccccc2)=NN1 | 134
O=C(Cl)C(=O)c1cn(Cc2ccc(F)cc2)c2ccc(OCc3ccccc3)cc12 | 155 to 158
C=CCc1ccc(C[C@H](NC(=O)OC(C)(C)C)C(=O)OC)cc1 | 56 to 59
O=C(O)/C=C/n1cnc2ccccc2c1=O | 250 to 254
CCCCCCCCCCCCCCOc1ccc(C(=O)NCc2ccccn2)cc1 | 91 to 93
C=CC(=O)Nc1ccc2ncnc(Nc3ccc(OCc4ccccc4)cc3)c2c1 | 227 to 229
Cc1c(Cc2ccc(C(C)C)cc2)c2c(c(C)c1NC(=O)CC(C)(C)C)C(=O)C(C)(C)O2 | 193 to 194
CC(=NNC(=O)c1ccccc1)c1ccccn1 | 152
CC1(C)OCC(C(O)CN)O1 (stereo unspecified) | 94 to 96
CC(C)C(NC(=O)NCc1ccccc1)C(=O)NC(Cc1ccccc1)C(O)C(Cc1ccccc1)NC(=O)C(NC(=O)NCc1ccccc1)C(C)C (stereo unspecified) | 238
CC(C)(C)c1cc(Nc2ccccc2C#N)cc(C(C)(C)C)c1O | 172
CCc1nc(-c2cc3cc(OCCNC[C@H](O)COc4ccccc4)ccc3o2)no1 | 97 to 98
CCCCCOc1ccc(C=O)cc1OCCCCC | 31 to 32.5
CCOC(=O)C1COc2c(C(=O)c3ccccc3)cccc21 (stereo unspecified) | 42 to 43
COc1ccc(-c2nc3sccn3c2/C=C/C(=O)c2cc(OC)c(OC)c(OC)c2)cc1 | 177 to 179
O=C1NCc2c(cccc2Oc2ccccc2)N1 | 278 to 280
c1ccc(C2CCCC2OCC2CO2)cc1 (stereo unspecified) | 31
C=C(c1ccc(Br)cc1)c1ccc(OCCCC)cc1 | 71.8 to 73
O=C(Nc1ccccc1)C1CCNCC1 | 121 to 127
CCc1cn2ccccc2c1S(=O)(=O)c1ccc(O)c(C)c1 | 214
CCCCc1nn(-c2ccc(C(F)(F)F)cn2)cc1/C=C/C(=O)OCC | 84 to 85
CC(C)(C)NCC(O)C(Cl)(Cl)Cl (stereo unspecified) | 48 to 50
C[C@H](NC(=O)OC(C)(C)C)C(=O)NC1N=C(c2ccccn2)c2ccccc2N(C)C1=O (stereo partly specified) | 228 to 229
CC(=O)Cc1ccc(OCc2ccccc2)cc1 | 50 to 54

Compound | melting point [°C]
Cc1c(O)c(C)c(Br)c(C)c1Br | 144 to 146
CC(=O)OCC(=O)NNC(=O)c1ccc2occ(-c3cccc(OC(F)(F)F)c3)c2c1 | 161 to 162
O=P(O)(O)Cc1ccccc1C(F)(F)F | 190 to 192
CCCc1cc(Cl)c2oc(Cc3ccc(O)cc3)c(C)c2c1O | 142 to 143
NC(=O)[C@@H]1COCN1C(=O)CCl | 131 to 133
O=c1oc2ccccc2c(O)c1[C@@H]1C[C@@H](c2ccc(OCc3ccc(C(F)(F)F)cc3)cc2)Cc2ccccc21 (relative stereo) | 153 to 155
O=C(OCN1C(=O)c2ccccc2C1=O)c1ccccc1N=Nc1ccc(O)c(O)n1 | 196 to 201
O=C(C(=NO)c1ccc(F)cc1)c1ccnc(F)c1 | 166
CCOC(=O)Cc1ccc2c(c1)C(O)C(NC(=O)OC)CC2 (stereo unspecified) | 99 to 100
CCN(CC)CCCN1C(=O)NC(Cc2c[nH]c3ccc(Cl)cc23)C1=O (stereo unspecified) | 186
CC(O)C(CCCc1ccccc1)n1ncc2c(=O)[nH]c(Cc3ccc(Br)cc3)nc21 (stereo unspecified) | 117
CN(C)C(=O)c1cccc(C(=O)Nc2cccc3cc(Br)cnc23)c1 | 157
N#Cc1nn(-c2c(Cl)cc(C(F)(F)F)cc2Cl)cc1C1CC1 | 124
CN1[C@@H]2CC[C@H]1[C@H](CO)[C@H](c1ccc(Cl)c(Cl)c1)C2 | 81 to 86
CCN(CC)C(=O)Nc1ccc2c(c1)C(c1ccccc1F)=NCC(=O)N2C | 138 to 139
O=Cc1cccc(OCCn2ncc3ccccc3c2=O)c1 | 110 to 111
O=C(CCl)Nc1cc(C2(Cl)C=C(C(F)(F)F)C=NC2)ccc1O (stereo unspecified) | 205
NS(=O)(=O)c1cccc(-c2cccc(-c3nc(-c4ccc(C(F)(F)F)c(OCC(F)(F)F)c4)cc(C(F)(F)F)n3)c2)c1 | 188
O=C1CNc2ccccc2CN1 | 167 to 170
CCOC(=N)c1ccccc1-c1ccc(Cn2c(OCC)nc3cccc(C(=O)OC)c32)cc1 | 105 to 106
CCOC(=O)[C@H](CC(C)C)NC(=O)[C@@H](NC(=O)c1ccccc1)C(C)C | 159 to 160
O[C@H]1c2cc(OCc3cccnc3)ccc2OC[C@H]1Cc1cccnc1 (relative stereo) | 145 to 147
Brc1ccc(C=Cc2csc3ccccc23)s1 | 71.5 to 73
CN(C)Cc1cc2ccc(C(=O)NNC(=O)CSCCOc3ccccc3)cc2o1 | 162 to 164
O=C(Nc1cccc(S(=O)(=O)NCc2cccnc2)c1)c1cnn2c(C(F)(F)F)cc(-c3ccc(C(F)(F)F)cc3)nc12 | 257
C[C@@H](S[C@H]1CO[C@H](c2ccc(C(=O)NCc3cccc4ccccc34)cc2)OC1)[C@](O)(Cn1cncn1)c1ccc(F)cc1F | 97

Now from value to molecule:

melting point [°C] | Compound
218 | O=c1c2ccc([N+](=O)[O-])cc2nc(C(S)c2ncnc3[nH]cnc23)n1-c1ccccc1Cl (stereo unspecified)
63 to 65 | O=[N+]([O-])c1cc(Cl)c(Cl)cc1O
157 to 158 | O=C1OCCC12Sc1cc(Cl)ccc1C2=O (stereo unspecified)
196 to 197 | O=C(O)c1ccc(C=Cc2csc3ccccc23)s1
155 to 158 | Cc1cccnc1CS(N)(=O)=O
137 to 141 | O=C1c2ccccc2SC(O)(c2ccccc2)C2CCCN12 (stereo unspecified)
195 | CCOP(=O)(OCC)c1nc(NC2CC(C)(C)NC(C)(C)C2)nc(NC2CC(C)(C)NC(C)(C)C2)n1
185 to 188 | CCn1cc(C(=O)O)c(=O)c2cc(F)c(N3CCNC(Cn4cccc4)C3)cc21 (stereo unspecified)
165 to 167 | O=C(O)c1cc(=O)c(Sc2ccc(Cl)cc2)co1
205 to 208 | COc1ccc(NC(=O)Nc2ccc(Cl)c(Cl)c2)cc1NS(=O)(=O)c1cccs1
252 to 255 | COCCNC(=O)c1cc(-c2ccccc2)c(=O)[nH]c1-c1c(Cl)cccc1C#N
105 | Clc1nccc(N[C@H]2CC[C@@H](c3ccccc3)CC2)c1Br
178 to 179 | Cn1c(-c2ccccc2)cc2oc(=O)nc(-c3ccccc3)c2c1=O
157 to 159 | CCCCc1ncc(CNC(C)(Cc2ccccc2)C(=O)O)n1Cc1ccccc1Cl (stereo unspecified)
169 to 171 | O=c1[nH]c(=O)n(C2OC(CO)CC2O)cc1F (stereo unspecified)
131 to 132 | O=C(Oc1ccc(Oc2ccc(C(F)(F)F)cn2)cc1)N1CCN(c2ncccc2C(F)(F)F)CC1
176 to 178 | CSc1nc(Cl)c([N+](=O)[O-])c(N2CCS(=O)CC2)n1
73 | O=C(Cc1ccccc1Nc1c(Cl)cccc1Cl)OCCOCCO[N+](=O)[O-]
189 to 193 | O=C1CC(=O)N(c2ccc(Cl)cc2)N1
115 to 116 | Cc1cc(N)c2nccc(Cl)c2c1
135 to 137 | C#CCOc1ccc(CC(=O)O)cc1[N+](=O)[O-]
208 to 209 | CC(C)c1ccc(S(=O)(=O)Nc2ccc(N3CCC(NC(=O)OC(C)(C)C)CC3)nc2)cc1
224 to 225 | CC1(C(=O)c2c[nH]c3ncc(-c4cccs4)nc23)CCCCC1
245 to 247 | CC1CCn2c(nc(-c3ccncc3)cc2=O)N1 (stereo unspecified)

melting point [°C] | Compound
93 to 95 | O=C(c1ccc(-c2cnc3c(c2)N(Cc2c(F)ccc(F)c2Cl)CCN3)cc1)N1CCC(N2CCCC2)CC1
118 to 120 | CCCCc1nc(Cl)c(C=O)n1Cc1ccc2oc(-c3ccccc3C#N)c(OC)c2c1
232 to 234 | Cc1ccc(NC(=O)NCc2ccc3c(c2)C(=O)N(C2(C)CCC(=O)NC2=O)C3=O)cc1Cl (stereo unspecified)
152 | CC(C)(C)OC(=O)n1ccc2c3[nH]c(CO)nc3ccc21
128 to 130 | COc1ccc(SC)c2c1CC(N)(C#N)CC2 (stereo unspecified)
249 to 250 | O=C(Nc1cccnn1)N1CCN(c2cc(-c3ccc(F)cc3F)ncn2)CC1
146 to 148 | CCN(c1ccc(Cl)cc1[N+](=O)[O-])S(=O)(=O)c1ccc(C#N)cc1
119 to 120 | CS(=O)c1cccc2c3c(n(Cc4ccc(Cl)cc4)c12)C(CC(=O)O)CCC3 (stereo unspecified)
227 to 228 | O=C1CCC2=C(CCc3cc(Br)ccc32)N1
177 to 179 | CC1CCN(C2=Nc3cc(Br)ccc3N3CCc4cccc2c43)CC1
111 to 118 | O=C(COc1ccc(Cl)cc1Cl)OCCOC(=O)c1cc(Oc2ccc(C(F)(F)F)cc2Cl)ccc1[N+](=O)[O-]
96 to 97 | Cn1nc(C(F)(F)F)nc1NC(=O)CCCOc1cccc(CN2CCCCC2)c1
122 to 124 | COc1ccc2[nH]c3c(c2c1)CCSCCC3
80 to 82 | O=Cc1cc(-n2nnnc2C(F)(F)F)ccc1OCC1CC1
267 to 269 | Nc1nc(-c2cc(Cl)ccc2Cl)nc(N2CCS(=O)CC2)n1
179 to 181 | c1ccc(CC2CCN(Cc3nc4ccccc4[nH]3)CC2)cc1
113 to 114 | CC(=O)OCc1c(O)cccc1[N+](=O)[O-]
196 to 198 | Cc1ccc2c(Cl)cc(S(=O)(=O)F)c(O)c2n1
127 to 128 | O=c1c(C(F)(F)F)cn(C2CC(O)C(CO)O2)c(=O)n1C1CCCO1 (stereo unspecified)
180 to 182 | COc1ccc(CCC2CN(C3=Nc4cc(F)ccc4Nc4sc(C)cc43)CCN2C)cc1 (stereo unspecified)
159 to 164 | CC(=O)CC(=O)Nc1ccc(-c2ncn(-c3ccc(OC(F)(F)F)cc3)n2)cc1
280 to 282 | Cn1nnnc1-c1cnc2ccccn2c1=O
108 to 110 | CC1Oc2c(F)cc(CN3CCN(c4ccc(C(=O)NC5CC5)cc4)CC3)cc2NC1=O (stereo unspecified)
145 to 146 | CC(=O)N1CCC(Nc2ccccc2Oc2ccc(Cl)cc2Cl)CC1
